Laboratory results from PubChem BioAssay AID1996.
Values after ≈ are worked out from the molar mass of the structure shown.

details: buffer; pH 7.4; 200.0 µM

Compared with `CCN(CC(=O)NC1CCS(=O)(=O)C1)c1ccc(S(=O)(=O)N(CC)CC)cc1[N+](=O)[O-]` (centres undefined), `CC(C)CNS(=O)(=O)c1ccc(CCC(=O)NC2CCCCC2)cc1` is lower in solubility kinetic: over 71.5 µg/mL for the first, 10.5 µg/mL (≈ 28.6 µM) for the second.

Compared with `O=C(c1c(Cl)cccc1Cl)N1CCN(c2ncccn2)CC1`, `O=C(O)CCN1CCN(S(=O)(=O)c2ccc3ccccc3c2)CC1` is lower in solubility kinetic: over 50.6 µg/mL for the first, 44.5 µg/mL (≈ 128 µM) for the second.

`O=C(CN1C(=O)c2cccc([N+](=O)[O-])c2C1=O)NNC(=O)c1ccc(F)cc1` and `O=C(c1ccc(F)cc1)C1CCN(C(=O)c2ccc(F)cc2)CC1` cannot be ordered by solubility kinetic: over 57.9 µg/mL for the first, over 49.4 µg/mL for the second.

Going from `COc1ccc(CCNC(=O)/C=C/c2ccco2)cc1OC` to `COc1ccc(CCNCc2ccsc2)cc1OC`, the solubility kinetic falls from over 45.2 µg/mL to 37.1 µg/mL (≈ 134 µM).

Compared with `O=C(Cc1ccc(Cl)cc1)Nc1ccccn1`, `O=C(Nc1cccc(Cl)c1)c1ccc2ncsc2c1` is lower in solubility kinetic: over 37 µg/mL for the first, 21.2 µg/mL (≈ 73.4 µM) for the second.

Going from `Cc1nc2ccc(C(=O)Nc3ccccc3Cl)cc2s1` to `Cc1c(F)cccc1NC(=O)c1ccc2c(c1)CCN2S(C)(=O)=O`, the solubility kinetic falls from 14.2 µg/mL (≈ 46.9 µM) to 4.4 µg/mL (≈ 12.6 µM) (3.2-fold).

Compared with `CC(C)CN(C(=O)c1ccco1)c1nc2ccccc2s1`, `CN(C)C(CNC(=O)c1ccc2nccnc2c1)c1ccco1` (centres undefined) is 21-fold higher in solubility kinetic: 2.2 µg/mL (≈ 7.32 µM) for the first, 46.5 µg/mL (≈ 150 µM) for the second.

Going from `O=C(CN1CCN(Cc2ccc(F)cc2)C1=O)NC1CCCC1` to `CCC1(c2ccc(F)cc2)NC(=O)N(CC(=O)NC2CCCC(C)C2C)C1=O` (centres undefined), the solubility kinetic falls from over 47.9 µg/mL to 13.2 µg/mL (≈ 33.9 µM).

`Cc1ccccc1-n1c(-c2ccoc2)nc2ccccc2c1=O` and `NC(Cc1ccccc1)c1nc(-c2ccccc2)no1` (centres undefined) cannot be ordered by solubility kinetic: over 45.3 µg/mL for the first, over 39.8 µg/mL for the second.

Going from `CCCCCCCN=C(C)c1ccccc1O` to `CN(C)CCCNC1=CC(=O)CC(c2ccccc2)C1` (centres undefined), the solubility kinetic rises from 13.9 µg/mL (≈ 59.6 µM) to 34.8 µg/mL (≈ 128 µM) (2.5-fold).

Going from `N#Cc1ccc(NC(=O)CN2C(=O)NC3(CCCC3)C2=O)cc1Cl` to `CCc1cccc(C)c1NC(=O)CN1C(=O)NC(C)(CCC(C)C)C1=O` (centres undefined), the solubility kinetic rises from 46.1 µg/mL (≈ 133 µM) to over 53.9 µg/mL.

`Cc1cccc(NC(=S)N(C)C2CCCCC2)c1` and `COc1ccc(C)cc1C(=O)CCC(=O)NC1CCCCC1` are within 1.5-fold of each other in solubility kinetic: 30.1 µg/mL (≈ 115 µM) for the first, 21.2 µg/mL (≈ 69.9 µM) for the second.

First: CNc1ccc(C(=O)OCC(=O)NC(=O)NC2CCCCC2)cc1[N+](=O)[O-]
Second: Cc1ccc(C(C)C)c(OCC(=O)NC2CCN(C)CC2)c1
The solubility kinetic of the first is lower: 1.7 µg/mL (≈ 4.49 µM) for the first, over 45.7 µg/mL for the second.

Compared with `CC1CCN(CC(=O)Nc2nc(-c3ccccc3)cs2)CC1`, `Cc1ccc2cccc(OCC(=O)N3CC(C)CC(C)C3)c2n1` (centres undefined) is 3.6-fold higher in solubility kinetic: 12.9 µg/mL (≈ 40.9 µM) for the first, 46.2 µg/mL (≈ 148 µM) for the second.

`CC12CN3CC(C)(CN(C1)C3c1ccc3c(c1)OCO3)C2O` (centres undefined) and `CC(Sc1nncs1)C(=O)Nc1ccc2c(c1)OCCO2` (centres undefined) cannot be ordered by solubility kinetic: over 45.4 µg/mL for the first, over 48.5 µg/mL for the second.

First: COc1ccc(NC(=O)/C=C/c2cccc(Br)c2)cn1
Second: O=C(/C=C/c1cccc(O)c1)c1ccc(N2CCOCC2)cc1
The solubility kinetic of the first is 6.1-fold lower: 3.8 µg/mL (≈ 11.4 µM) for the first, 23.2 µg/mL (≈ 75 µM) for the second.

First: Cc1ccccc1OCc1ccc(C(=O)N2CC(C)OC(C)C2)o1 (centres undefined)
Second: Cc1ccc(C)c(OCCCN2CCc3ccccc3C2)c1.Cl
The solubility kinetic of the first is 3.4-fold higher: 47.8 µg/mL (≈ 145 µM) for the first, 14 µg/mL for the second.

`OC(c1nnc(-c2ccccc2)o1)c1cccs1` (centres undefined) and `COc1ccc2c(c1)nc(SCC(O)c1ccccc1)n2C` (centres undefined) cannot be ordered by solubility kinetic: over 38.7 µg/mL for the first, 41.3 µg/mL (≈ 131 µM) for the second.

Compared with `O=C1CSCC(=O)N1Cc1ccc(Cl)cc1Cl`, `O=S1(=O)CCC(=Nc2ccc(Cl)cc2)c2ccsc21` is 1.9-fold lower in solubility kinetic: 38.2 µg/mL (≈ 132 µM) for the first, 20.3 µg/mL (≈ 65.1 µM) for the second.

`COc1cc2ncnc(NCc3ccccc3F)c2cc1OC` and `Cc1ccc(F)c(NC(=O)c2cncn2-c2ccccc2)c1` are within 1.5-fold of each other in solubility kinetic: 41.8 µg/mL (≈ 133 µM) for the first, 41.2 µg/mL (≈ 140 µM) for the second.

Compared with `NS(=O)(=O)c1ccc(NC(=O)COC(=O)c2ccco2)cc1`, `CCOC(=O)Cc1csc(NS(=O)(=O)c2ccc([N+](=O)[O-])cc2)n1` is higher in solubility kinetic: 30 µg/mL (≈ 92.5 µM) for the first, over 55.7 µg/mL for the second.

Going from `CCOc1ccc(NC(=O)c2c3c(nc4ccccc24)CCC3)cc1` to `CCOc1ccc(-c2c(C)sc3nc[nH]c(=O)c23)cc1`, the solubility kinetic rises from 1.4 µg/mL (≈ 4.21 µM) to 24.6 µg/mL (≈ 85.9 µM) (18-fold).

Going from `COc1ccc(OC)c(NC(=O)c2cc3c(cc2Cl)N2CCCCCC2=NS3(=O)=O)c1` to `COc1cccc(NC2=NCCCCC2)c1`, the solubility kinetic rises from 3.7 µg/mL (≈ 7.98 µM) to over 32.7 µg/mL.

`COC(=O)[C@@H](NC(=O)NC1CCCCC1C)C(C)C` (some centres undefined) and `COc1ccc(CCNC(=O)[C@@H](NC(N)=O)C(C)C)cc1` cannot be ordered by solubility kinetic: over 40.6 µg/mL for the first, over 44 µg/mL for the second.

`CCOC(=O)Cc1csc(NC(=O)c2ccc(C)cc2)n1` and `CCOC(=O)c1csc(NC(C)=O)n1` cannot be ordered by solubility kinetic: 45.6 µg/mL (≈ 150 µM) for the first, over 32.1 µg/mL for the second.

`Cc1ccc(Nc2nc(N)nc(CCl)n2)c(C)c1` and `Cc1ccc(C)c(NC(=O)CN(C)C(=O)c2ccc(Cl)nc2)c1` cannot be ordered by solubility kinetic: over 39.6 µg/mL for the first, over 49.8 µg/mL for the second.

`Cc1sc2ncnc(N3CCC(C(=O)Nc4ccc(OC(F)F)c(Cl)c4)CC3)c2c1C` and `Nc1nc(NCCCN2CCOCC2)nc(Nc2cccc(F)c2)c1[N+](=O)[O-]` are within 1.5-fold of each other in solubility kinetic: 5.7 µg/mL (≈ 12.2 µM) for the first, 6.3 µg/mL (≈ 16.1 µM) for the second.

First: CCN(CCO)c1ccc(N=Cc2c(O)n(C)c(=S)[nH]c2=O)cc1
Second: Cc1ccc(Sc2ccc(C(=O)N(C)C)cc2[N+](=O)[O-])cc1
The solubility kinetic of the first is 11-fold lower: 3.2 µg/mL (≈ 9.18 µM) for the first, 35 µg/mL (≈ 111 µM) for the second.

Going from `COc1ccc(C(CC(=O)Nc2nccs2)C(C)C)cc1` (centres undefined) to `Cc1cccc(-c2noc(-c3ccccc3C(=O)NCc3ccco3)n2)c1`, the solubility kinetic falls from 33.7 µg/mL (≈ 111 µM) to 8.9 µg/mL (≈ 24.8 µM) (3.8-fold).

Work on `Cc1ccc(C2N=C(N)Nc3nc(=O)c4ccccc4n32)cc1` (centres undefined) yielded a solubility kinetic of 3.1 µg/mL (≈ 10.2 µM).
